In patent publication US20230293530A1, “AGENTS FOR SENSITIZING SOLID TUMORS TO TREATMENT” (Yeda Research and Development Co. Ltd., priority 2020, published 2023):

Test system: NSCLC PDX explants with autologous CD8+ T cells
Experiment: Co-culture of NSCLC PDX tumor explants with autologous CD8+ T cells, IFNγ ELISA
Assay type: cell-based, human
Text: Two patients bearing metastatic non-small cell lung cancer (NSCLC) were included in this study. Blood samples and fresh tumor tissue samples were procured just after their biopsy with patient consent and with Helsinki approval (number 0093-19-SOR). The samples were placed in serum free DMEM (Gibco) media then processed for implantation in NSG (NOD scid gamma) mice. Tumor tissue samples were implanted subcutaneously in dorsal flanks of the mice to form patient-derived xenografts (PDXs). All animal experiments were done under Institutional Animal Care and Use Committee (IACUC) of Ben-Gurion University of the Negev (BGU’s IACUC) according to specified protocols aiming to ensure animal welfare and reduce su □ ering. The Animal ethical clearance protocol number used for this research is IL-80-12-2015. After isolation of peripheral blood mononuclear cells (PBMCs) from the peripheral blood of the patients according to standard protocol using Lymphocyte Separation Medium (LSM, MP Biomedicals, SKU 0850494-CF), CD8^+ T cells were isolated from PBMCs by employing human CD8 Microbeads (Miltenyi Biotec, 130-045-201), LS column (Miltenyi Biotec, 130-042-401) and MidiMACS Separator (130-042-302) following manufacturer’s protocol. For culturing and maintenance of CD8 T cells, RPMI containing 10% human male AB plasma (Sigma, H4522), 1 mM sodium pyruvate, 2 mM L-glutamine, 0.1 mM MEM non-essential amino acids, 1% penicillin/streptomycin, 10 mM HEPES (Life Technologies), 200 IU/mL recombinant human IL-2 (PeproTech) and 50 ng/mL anti-human CD3 Antibody (BioLegend, 317302) were used for the first 48 hrs followed by culturing and passaging in media containing 200 IU/mL of IL-2.
2×2×2 mm^3 tumor tissue explants were cut from PDXs with a specific tissue cutter and seeded singly in 48 well flat-bottom plates and incubated with either mizoribine (0.3 mM) in 400 µl of media or with only media for 10 hrs. Then, explants were washed once and transferred into new 48 well flat-bottom plates containing 2×10^5 CD8+T cells/well along with nivolumab (Opdivo, 20 µg/mL), pembrolizumab (Keytruda, 20 µg/mL) or mock solventin fresh 400 µl RPMI containing 20 IU/ml ofIL-2. After 18 hours of incubation, the supernatant was collected from the wells and then assayed for standard IFNγ ELISA assay (ELISA MAX, Biolegend) according to manufacturer’s instructions.
Two patients bearing metastatic non-small cell lung cancer (NSCLC) were included in this study. Blood samples and fresh tumor tissue samples were procured just after their biopsy with patient consent and with Helsinki approval (number 0093-19-SOR). The samples were placed in serum free DMEM (Gibco) media then processed for implantation in NSG (NOD scid gamma) mice (NOD.Cg-Prkdcscid Il2rgtm1Wjl, The Jackson Laboratory). Tumor tissue samples were implanted subcutaneously in dorsal flanks of the 7-9 weeks old male mice to form patient-derived xenografts (PDXs).
After isolation of peripheral blood mononuclear cells (PBMCs) from the peripheral blood of the patients according to standard protocol using Lymphocyte Separation Medium (LSM, MP Biomedicals, SKU 0850494-CF), CD8^+ T cells were isolated from PBMCs by employing human CD8 Microbeads (Miltenyi Biotec, 130-045-201), LS column (Miltenyi Biotec, 130-042-401) and MidiMACS Separator (130-042-302) following manufacturer’s protocol. For culturing and maintenance of CD8 T cells, RPMI containing 10% human male AB plasma (Sigma, H4522), 1 mM sodium pyruvate, 2 mM L-glutamine, 0.1 mM MEM non-essential amino acids, 1% penicillin/streptomycin, 10 mM HEPES (Life Technologies), 200 IU/mL recombinant human IL-2 (PeproTech) and 50 ng/mL anti-human CD3 Antibody (BioLegend, 317302) were used for the first 48 hrs followed by culturing and passaging in media containing 200 IU/mL of IL-2.
PDXs from patients with lung cancer non responsive to anti-PD1 were exposed to no treatment, to mizoribine, or to either EDHB (left panel) or Viagra (right panel). […]

In the case of `NC(=O)c1ncn([C@@H]2O[C@H](CO)[C@@H](O)[C@H]2O)c1O` [Mizoribine, mizoribine], the “human IFNγ in supernatant, explant alone” value (PDX explant alone treated with mizoribine 0.3 mM, no T cells) was “did not detect human IFNγ”, the “IFNγ secretion by autologous CD8+ T cells, anti-PD1 plus mizoribine-treated explants” value (explants pre-treated with mizoribine 0.3 mM 10 hrs, nivolumab or pembrolizumab 20 µg/mL, 18 hours) was “significant elevation in secretion of IFN-γ” and the “human IFNγ levels, explant plus autologous CD8+ T cells, no anti-PD1” value (mizoribine-treated explants with autologous CD8+T cells) was “did not induce detectable IFNγ levels”.
